Test results from PubChem BioAssay AID292 (DTP/NCI, 2004).
Several values for one entry are separate records, joined by “and”; a condition that tells them apart may be missing. Identical values can stand only once. Toxic doses and inconclusive results are not listed.

System: B6C3F1 mice, ip Sarcoma M5076, median survival T/C
Assay: NCI In Vivo Anticancer Drug Screen. Data for tumor model Sarcoma M5076 (intraperitoneal) in B6C3F1 mice
Conditions: endpoint: median survival time, higher = longer survival
Procedure, shortened: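 Tumour cells were transplanted into mice, compound or vehicle was given, survival of both groups was followed, and the treated figure was expressed over the control figure.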

[1] = dose: 600.0 mg/kg/injection, schedule: Q04DX004 (ip), vehicle: saline with Tween-80

C=C1C(O)C2(O)OCC34C(CC5C(C)=CC(=O)C(O)C5(C)C23)OC(=O)C(OC(=O)C/C=C/CCCCCCCC)C14 (centres undefined)
T/C (dose: 2.0 mg/kg/injection, schedule: Q04DX004 (ip), vehicle: saline + alcohol): 96 % of control | T/C (dose: 2.88 mg/kg/injection, schedule: Q04DX004 (ip), vehicle: saline + alcohol): 116 % of control | T/C (dose: 2.89 mg/kg/injection, schedule: Q04DX004 (ip), vehicle: saline + alcohol): 112 % of control | T/C (dose: 4.0 mg/kg/injection, schedule: Q04DX004 (ip), vehicle: saline + alcohol): 107 % of control | T/C (dose: 4.8 mg/kg/injection, schedule: Q04DX004 (ip), vehicle: saline + alcohol): 110 % of control | T/C (dose: 13.33 mg/kg/injection, schedule: Q04DX004 (ip), vehicle: saline + alcohol): 124 % of control | T/C (dose: 16.0 mg/kg/injection, schedule: Q04DX004 (ip), vehicle: saline + alcohol): 114 % of control

CO[C@@]12[C@@H]3N[C@@H]3CN1C1=C(C(=O)C(NCCc3ccccn3)=C(C)C1=O)[C@@H]2COC(N)=O
T/C (dose: 3.2 mg/kg/injection, schedule: Q04DX004 (ip), vehicle: saline with Tween-80): 112 % of control | T/C (dose: 5.4 mg/kg/injection, schedule: Q04DX004 (ip), vehicle: saline with Tween-80): 122 % of control | T/C (dose: 25.0 mg/kg/injection, schedule: Q04DX004 (ip), vehicle: saline with Tween-80): 172 % of control and 197 % of control | T/C (dose: 42.0 mg/kg/injection, schedule: Q04DX004 (ip), vehicle: saline with Tween-80): 200 % of control | T/C (dose: 69.0 mg/kg/injection, schedule: Q04DX004 (ip), vehicle: saline with Tween-80): 280 % of control

N#CC(=C1C=CC(=NO)C=C1)c1ccc(Cl)cc1
T/C [1]: 96 % of control

Nc1ncnc2c1c1c(=O)[nH]c(=O)[nH]c1n2C1OC(CO)C(O)C1O (centres undefined)
T/C (dose: 50.0 mg/kg/injection, schedule: Q04DX004 (ip), vehicle: distilled water + Tween-80): 106 % of control and 115 % of control | T/C (dose: 100.0 mg/kg/injection, schedule: Q04DX004 (ip), vehicle: distilled water + Tween-80): 117 % of control | T/C (dose: 200.0 mg/kg/injection, schedule: Q04DX004 (ip), vehicle: distilled water + Tween-80): 104 % of control and 108 % of control | T/C (dose: 400.0 mg/kg/injection, schedule: Q04DX004 (ip), vehicle: distilled water + Tween-80): 116 % of control

COc1ccc(C=C(C(=O)CCN(C)C)C(=O)CCN(C)C)cc1
T/C (dose: 25.0 mg/kg/injection, schedule: Q04DX004 (ip), vehicle: saline): 99 % of control | T/C (dose: 50.0 mg/kg/injection, schedule: Q04DX004 (ip), vehicle: saline): 101 % of control | T/C (dose: 100.0 mg/kg/injection, schedule: Q04DX004 (ip), vehicle: saline): 102 % of control | T/C (dose: 200.0 mg/kg/injection, schedule: Q04DX004 (ip), vehicle: saline): 102 % of control

Nc1nc(Br)nc2c1ncn2C1CC(O)C(CO)O1 (centres undefined)
T/C (dose: 7.5 mg/kg/injection, schedule: Q03HX009 (ip), vehicle: saline): 102 % of control | T/C (dose: 15.0 mg/kg/injection, schedule: Q03HX009 (ip), vehicle: saline): 118 % of control | T/C (dose: 30.0 mg/kg/injection, schedule: Q03HX009 (ip), vehicle: saline): 109 % of control | T/C (dose: 60.0 mg/kg/injection, schedule: Q03HX009 (ip), vehicle: saline): 116 % of control | T/C (dose: 120.0 mg/kg/injection, schedule: Q03HX009 (ip), vehicle: saline): 113 % of control

O=C(CSc1nnc(CSc2ccc(Cl)cc2)n1-c1ccccc1)NC(=O)Nc1ccccc1
T/C (dose: 4.69 mg/kg/injection, schedule: Q04DX004 (ip), vehicle: Klucel (hydroxypropylcellulose) (HPC)): 103 % of control | T/C (dose: 9.38 mg/kg/injection, schedule: Q04DX004 (ip), vehicle: Klucel (hydroxypropylcellulose) (HPC)): 102 % of control | T/C (dose: 18.75 mg/kg/injection, schedule: Q04DX004 (ip), vehicle: Klucel (hydroxypropylcellulose) (HPC)): 88 % of control | T/C (dose: 37.5 mg/kg/injection, schedule: Q04DX004 (ip), vehicle: Klucel (hydroxypropylcellulose) (HPC)): 88 % of control and 89 % of control

COc1oc(C2C/C(=C/C(C)=C/C(C)=C/C(C)=C/c3ccc([N+](=O)[O-])cc3)CO2)c(C)c(=O)c1C (centres undefined)
T/C (dose: 1.0 mg/kg/injection, schedule: Q04DX004 (ip), vehicle: saline): 100 % of control | T/C (dose: 2.0 mg/kg/injection, schedule: Q04DX004 (ip), vehicle: saline): 102 % of control and 104 % of control | T/C (dose: 4.0 mg/kg/injection, schedule: Q04DX004 (ip), vehicle: saline): 102 % of control and 103 % of control | T/C (dose: 8.0 mg/kg/injection, schedule: Q04DX004 (ip), vehicle: saline): 106 % of control and 115 % of control

Cc1[nH]c(=O)[nH]c(=O)c1CCSSCCc1c(C)[nH]c(=O)[nH]c1=O
T/C (dose: 37.5 mg/kg/injection, schedule: Q04DX004 (ip), vehicle: saline with Tween-80): 90 % of control | T/C (dose: 75.0 mg/kg/injection, schedule: Q04DX004 (ip), vehicle: saline with Tween-80): 86 % of control | T/C (dose: 150.0 mg/kg/injection, schedule: Q04DX004 (ip), vehicle: saline with Tween-80): 89 % of control | T/C (dose: 300.0 mg/kg/injection, schedule: Q04DX004 (ip), vehicle: saline with Tween-80): 86 % of control | T/C [1]: 90 % of control
